# Measurements as given in patent US11944605B2, “Rapamycin analogs and uses thereof” (Janssen Pharmaceutica NV, priority 2018, dated 2024).
# pIC50: −log10 of the molar value.
# Assays:
# [1] = tested on: pS6K1 (p-p70 S6 Kinase (Thr389)) in MCF-7 cells; assay: AlphaLISA Ultra pS6K1 Assay; type: cell-based; details: Homo sapiens, 1.5 h; MCF7 cells, 90 min
# How it was run: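 MCF-7 cells were seeded for 20–24 h, refed with fresh medium for 2 h, then treated with compound for 90 min at 0.5% final DMSO. Lysates were frozen at −80 °C, thawed and assayed by AlphaLISA with acceptor then donor beads, 2 h each.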
# [2] = tested on: pAKT (p-Akt 1/2/3 (Ser473)) in MCF-7 cells; assay: AlphaLISA Ultra pAKT Assay; type: cell-based; details: Homo sapiens, 1.5 h; MCF7 cells, 90 min
# Method: AlphaLISA Ultra pAKT Assay
# 1. MCF-7 cells in Corning 3701 plate and incubate for 20˜24 hour.
# 16,000˜20,000 cells will be seeded in 36 μL medium per well.
# 2. Change the culture medium with fresh medium and incubate for another 90 minutes.
# 3. […]
# 4. Aspirate […] by HAMILTON, 10 μL rest per well.
# 5. Add 10 μL 2× lysis buffer using HAMILTON; total volume in wells is 20 μL. Allow cells to shake for 30 min. Cover plate by plastic foil and store plate at −80° C. up to analysis.
# 6. Thaw cell lysate at RT and transfer 10 ul lysate to assay plate (Optiplate-384).
# 7. Add 5 μL acceptor beads into assay plate and incubation for 2 hours
# 8. Add 5 μL donor beads and incubation for 2 hours
# 9. Count the plate by EnSpire Multimode Plate Reader
# [3] = Solubility in 100 mM phosphate buffer (pH 7.4); type: physicochemical; details: pH 7.4, aqueous buffer
# Source text: The compound numbers correspond to the compound numbers in Table 1.
# [4] = tested on: mTORC1 over mTORC2; assay: mTORC1 selectivity over mTORC2 at 24 hrs (Western blot based pS6K1 and pAKT assay); type: cell-based
smiles,measurement,setting,value
CO[C@@H]1C[C@H](C[C@@H](C)[C@@H]2CC(=O)[C@H](C)/C=C(\C)[C@@H](O)[C@@H](OC)C(=O)[C@H](C)C[C@H](C)/C=C/C=C/C=C(\C)[C@@H](OCCOCCOCCO)C[C@@H]3CC[C@@H](C)[C@@](O)(O3)C(=O)C(=O)N3CCCC[C@H]3C(=O)O2)CC[C@H]1O [Compound I-29],pIC50,[1],> 10.00
same,pIC50,[2],≤ 7.00
same,solubility,[3],30 to 60 µM
CO[C@@H]1C[C@H](C[C@@H](C)[C@@H]2CC(=O)[C@H](C)/C=C(\C)[C@@H](O)[C@@H](OC)C(=O)[C@H](C)C[C@H](C)/C=C/C=C/C=C(\C)[C@H](OCCOCCOCCO)C[C@@H]3CC[C@@H](C)[C@@](O)(O3)C(=O)C(=O)N3CCCC[C@H]3C(=O)O2)CC[C@H]1O [Compound I-30],pIC50,[1],9.00 to 10.00
same,pIC50,[2],≤ 7.00
same,solubility,[3],> 60 µM
CO[C@@H]1C[C@H](C[C@@H](C)[C@@H]2CC(=O)[C@H](C)/C=C(\C)[C@@H](O)[C@@H](OC)C(=O)[C@H](C)C[C@H](C)/C=C/C=C/C=C(\C)C(OCC3COCCOCCOCCOCCOCCO3)C[C@@H]3CC[C@@H](C)[C@@](O)(O3)C(=O)C(=O)N3CCCC[C@H]3C(=O)O2)CC[C@H]1O (stereo partly drawn) [I-1],pIC50,[1],9.00 to 10.00
same,pIC50,[2],≤ 7.00
same,mTORC1 selective @ 24 hrs,[4],YES
same,solubility,[3],30 to 60 µM
CO[C@@H]1C[C@H](C[C@@H](C)[C@@H]2CC(=O)[C@H](C)/C=C(\C)[C@@H](O)[C@@H](OC)C(=O)[C@H](C)C[C@H](C)/C=C/C=C/C=C(\C)C(OCC3COCCOCCOCCOCCO3)C[C@@H]3CC[C@@H](C)[C@@](O)(O3)C(=O)C(=O)N3CCCC[C@H]3C(=O)O2)CC[C@H]1O (stereo partly drawn) [I-3],pIC50,[1],9.00 to 10.00
same,pIC50,[2],≤ 7.00
same,mTORC1 selective @ 24 hrs,[4],YES
same,solubility,[3],30 to 60 µM
COCCOCCOC1C[C@@H]2CCC(C)C(O)(O2)C(=O)C(=O)N2CCCC[C@H]2C(=O)OC(C(C)CC2CCC(O)C(OC)C2)CC(=O)C(C)/C=C(\C)C(O)C(OC)C(=O)C(C)CC(C)/C=C/C=C/C=C/1C (stereo partly drawn) [I-17],pIC50,[1],9.00 to 10.00
same,pIC50,[2],≤ 7.00
same,mTORC1 selective @ 24 hrs,[4],YES
same,solubility,[3],30 to 60 µM
CO[C@@H]1C[C@H](C[C@@H](C)[C@@H]2CC(=O)[C@H](C)/C=C(\C)[C@@H](O)[C@@H](OC)C(=O)[C@H](C)C[C@H](C)/C=C/C=C/C=C(\C)[C@H](OCCOCCO)C[C@@H]3CC[C@@H](C)[C@@](O)(O3)C(=O)C(=O)N3CCCC[C@H]3C(=O)O2)CC[C@H]1O [I-19],pIC50,[1],> 10.00
same,pIC50,[2],≤ 7.00
same,mTORC1 selective @ 24 hrs,[4],YES
same,selectivity for mTORC1 over mTORC2 as measured by the impact on pAKT,"[4]; extended periods of time (e.g., 24 hours)",marked selectivity
same,solubility,[3],30 to 60 µM
"CO[C@@H]1C[C@H](C[C@@H](C)[C@@H]2CC(=O)[C@H](C)/C=C(\C)[C@@H](O)[C@@H](OC)C(=O)[C@H](C)C[C@H](C)/C=C/C=C/C=C(\C)C(OCCOCCOCCOCCO)C[C@@H]3CC[C@@H](C)[C@@](O)(O3)C(=O)C(=O)N3CCCC[C@H]3C(=O)O2)CC[C@H]1OCCO (stereo partly drawn) [I-22, (21E,23E,25E,26E,38R,39S,40R,41R,42S,45S,47S,49R,50R,59R)-49, 59-dihydroxy-46-[2-[2-[2-(2-hydroxyethoxy)ethoxy]ethoxy]ethoxy]-47-[(1R)-2-[(1S,2R, 3R)-3-(2-hydroxyethoxy)-2-methoxy-cyclohexyl]-1-methyl-ethyl]-50-methoxy-38,39,40,41,51,52-hexamethyl-70, 71-dioxa-60-azatricyclohexatriaconta-21,23,25(51),26(52)-tetraene-53, 54,55,56,57-pentone]",pIC50,[1],9.00 to 10.00
same,pIC50,[2],≤ 7.00
same,mTORC1 selective @ 24 hrs,[4],YES
"CO[C@@H]1C[C@H](C[C@@H](C)[C@@H]2CC(=O)[C@H](C)/C=C(\C)[C@@H](O)[C@@H](OC)C(=O)[C@H](C)C[C@H](C)/C=C/C=C/C=C(\C)C(OCCOCCO)C[C@@H]3CC[C@@H](C)[C@@](O)(O3)C(=O)C(=O)N3CCCC[C@H]3C(=O)O2)CC[C@H]1OCCO (stereo partly drawn) [I-23, (21E,23E,25E,26E,34R,35S,36R,37R,38S,41S,43S,45R,46R,55R)-45,55-dihydroxy-42-[2-(2-hydroxyethoxy)ethoxy]-43-[(1R)-2-[(1S,2R,3R)-3-(2-hydroxyethoxy)-2-methoxy-cyclohexyl]-1-methyl-ethyl]-46-methoxy-34, 35,36,37,47,48-hexamethyl-66,67-dioxa-56-azatricyclohexatriaconta-21, 23,25(47),26(48)-tetraene-49,50,51,52,53-pentone]",pIC50,[1],> 10.00
same,pIC50,[2],≤ 7.00
same,mTORC1 selective @ 24 hrs,[4],YES
"CO[C@@H]1C[C@H](C[C@@H](C)[C@@H]2CC(=O)[C@H](C)/C=C(\C)[C@@H](O)[C@@H](OC)C(=O)[C@H](C)C[C@H](C)/C=C/C=C/C=C(\C)C(OCC(O)CO)C[C@@H]3CC[C@@H](C)[C@@](O)(O3)C(=O)C(=O)N3CCCC[C@H]3C(=O)O2)CC[C@H]1O (stereo partly drawn) [I-25, (21E,23E,25E,26E,30R,31S,32R,33R,35R,37S,39S,40S,41R,42R,52S)-39-(2,3-dihydroxypropoxy)-41, 52-dihydroxy-40-[(1S)-2-[(1S,3R,4R)-4-hydroxy-3-methoxy-cyclohexyl]-1-methyl-ethyl]-42-methoxy-30, 31,32,33,43,44-hexamethyl-64,65-dioxa-53-azatricyclohexatriaconta-21, 23,25(43),26(44)-tetraene-45,46,47,48,49-pentone]",pIC50,[1],9.00 to 10.00
same,pIC50,[2],≤ 7.00
same,mTORC1 selective @ 24 hrs,[4],YES
"COCCOCCOCCOC1C[C@@H]2CC[C@@H](C)[C@@](O)(O2)C(=O)C(=O)N2CCCC[C@H]2C(=O)O[C@H]([C@H](C)C[C@@H]2CC[C@@H](O)[C@H](OC)C2)CC(=O)[C@H](C)/C=C(\C)[C@@H](O)[C@@H](OC)C(=O)[C@H](C)C[C@H](C)/C=C/C=C/C=C/1C (stereo partly drawn) [I-27, (22E,24E,26E,27E,35R,36S,37R,38R,39S,42S,44S,46R,47R,56R)-46,56-dihydroxy-44-[(1R)-2-[(1S, 2R,3R)-3-hydroxy-2-methoxy-cyclohexyl]-1-methyl-ethyl]-47-methoxy-43-[2-[2-(2-methoxyethoxy)ethoxy]ethoxy]-35,36,37,38,48,49-hexamethyl-66,67-dioxa-57-azatricyclohexatriaconta-22, 24,26(48),27(49)-tetraene-50,51,52,53,54-pentone]",pIC50,[1],9.00 to 10.00
same,pIC50,[2],≤ 7.00
same,mTORC1 selective @ 24 hrs,[4],YES
same,solubility,[3],30 to 60 µM
"CO[C@@H]1C[C@H](C[C@@H](C)[C@@H]2CC(=O)[C@H](C)/C=C(\C)[C@@H](O)[C@@H](OC)C(=O)[C@H](C)C[C@H](C)/C=C/C=C/C=C(\C)C(OCC(CO)CO)C[C@@H]3CC[C@@H](C)[C@@](O)(O3)C(=O)C(=O)N3CCCC[C@H]3C(=O)O2)CC[C@H]1O (stereo partly drawn) [I-31, (21E,23E,25E,26E,31R,32S,33R,34R,36R,38S,41S,42R,43R,53S)-42, 53-dihydroxy-40-[3-hydroxy-2-(hydroxymethyl)propoxy]-41-[(1S)-2-[(1S,3R, 4R)-4-hydroxy-3-methoxy-cyclohexyl]-1-methyl-ethyl]-43-methoxy-31,32,33,34,44,45-hexamethyl-65, 66-dioxa-54-azatricyclohexatriaconta-21,23,25(44),26(45)-tetraene-46,47,48,49,50-pentone]",pIC50,[1],9.00 to 10.00
same,pIC50,[2],≤ 7.00
same,mTORC1 selective @ 24 hrs,[4],YES
same,solubility,[3],> 60 µM
"CO[C@@H]1C[C@H](C[C@@H](C)[C@@H]2CC(=O)[C@H](C)/C=C(\C)[C@@H](O)[C@@H](OC)C(=O)[C@H](C)C[C@H](C)/C=C/C=C/C=C(\C)C(OCCOCCOCCO)C[C@@H]3CC[C@@H](C)[C@@](O)(O3)C(=O)C(=O)N3CCCC[C@H]3C(=O)O2)CC[C@H]1OCCO (stereo partly drawn) [I-32, (21E,23E,25E,26E,36R,37S,38R,39R,40S,43S,45S,47R,48R,57R)-47, 57-dihydroxy-44-[2-[2-(2-hydroxyethoxy)ethoxy]ethoxy]-45-[(1R)-2-[(1S,2R, 3R)-3-(2-hydroxyethoxy)-2-methoxy-cyclohexyl]-1-methyl-ethyl]-48-methoxy-36,37,38,39,49,50-hexamethyl-68, 69-dioxa-58-azatricyclohexatriaconta-21,23,25(49),26(50)-tetraene-51,52,53,54,55-pentone]",pIC50,[1],9.00 to 10.00
same,pIC50,[2],≤ 7.00
same,mTORC1 selective @ 24 hrs,[4],YES
same,solubility,[3],> 60 µM
"CO[C@@H]1C[C@H](C[C@@H](C)[C@@H]2CC(=O)[C@H](C)/C=C(\C)[C@@H](O)[C@@H](OC)C(=O)[C@H](C)C[C@H](C)/C=C/C=C/C=C(\C)C(OCCOCCOCCOCCOCCOCCO)C[C@@H]3CC[C@@H](C)[C@@](O)(O3)C(=O)C(=O)N3CCCC[C@H]3C(=O)O2)CC[C@H]1O (stereo partly drawn) [I-33, (21E,23E,25E,26E,40R,41S,42R,43R,45R,47S,50S,51R,52R, 61S)-51,6I-dihydroxy-49-[2-[2-[2-[2-[2-(2-hydroxyethoxy)ethoxy]ethoxy]ethoxy]ethoxy]ethoxy]-50-[(1S)-2-[(1S, 3R,4R)-4-hydroxy-3-methoxy-cyclohexyl]-1-methyl-ethyl]-52-methoxy-40, 41,42,43,53,54-hexamethyl-72,73-dioxa-62-azatricyclohexatriaconta-21, 23,25(53),26(54)-tetraene-55,56,57,58,59-pentone]",pIC50,[1],8.00 to 9.00
same,pIC50,[2],≤ 7.00
same,mTORC1 selective @ 24 hrs,[4],YES
same,solubility,[3],> 60 µM
